Test results: ChEMBL document CHEMBL1201862, “PubChem BioAssay data set” (2004)
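Values below derive from 48-hour exposures of cells grown in 96-well plates, with endpoints linearly interpolated between the two concentrations bracketing the appropriate inhibition level. GI50: concentration for 50% inhibition of growth.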 Calls of active or inactive are those of the source. Cut-off read from the data, not from the text of the source: active = GI50 up to about 1.1 µM and inactive = higher.

Legend:
Assay in all cases: inhibition of tumour cell growth, NCI panel, 48 h
COLO 205 = test system: COLO 205
DMS-114 = test system: DMS-114
EKVX = test system: EKVX
HT-29 = test system: HT-29
IGROV-1 = test system: IGROV-1
KM-20L2 = test system: KM-20L2
LXFL 529 = test system: LXFL 529
NCI-H226 = test system: NCI-H226
NCI-H23 = test system: NCI-H23
SN12C = test system: SN12C
SNB-19 = test system: SNB-19
SR = test system: SR
TK-10 = test system: TK-10
UACC-62 = test system: UACC-62
BT-549 = test system: BT-549
Hs-578T = test system: Hs-578T
MCF7 = test system: MCF7
MDA-MB-231 = test system: MDA-MB-231
MDA-MB-435 = test system: MDA-MB-435
PC-3 = test system: PC-3

## O=C1C[C@@H]2[C@@H](c3ccccc3)[C@@H]3C(=O)c4ccccc4NC(=O)[C@H]3[C@]2(O)c2ccccc2N1
COLO 205
  GI50: > 100 µM (inactive)
DMS-114
  GI50: > 100 µM (inactive)
EKVX
  GI50: > 100 µM (inactive)
HT-29
  GI50: > 100 µM (inactive)
IGROV-1
  GI50: > 100 µM (inactive)
KM-20L2
  GI50: > 100 µM (inactive)
LXFL 529
  GI50: > 100 µM (inactive)
NCI-H226
  GI50: > 100 µM (inactive)
NCI-H23
  GI50: > 100 µM (inactive)
SN12C
  GI50: > 100 µM (inactive)
SNB-19
  GI50: > 100 µM (inactive)
SR
  GI50: > 100 µM (inactive)
TK-10
  GI50: > 100 µM (inactive)
UACC-62
  GI50: > 100 µM (inactive)

## C/C(=N\NC(=S)N1CCN(c2ccccn2)CC1)c1ncccn1
BT-549
  GI50: 4.67 µM (inactive)
COLO 205
  GI50: 0.0569 µM (active)
DMS-114
  GI50: 0.00233 µM (active)
EKVX
  GI50: 0.291 µM (active)
HT-29
  GI50: 0.0161 µM (active)
Hs-578T
  GI50: 1.87 µM (inactive)
IGROV-1
  GI50: 0.00275 µM (active)
KM-20L2
  GI50: 0.00984 µM (active)
LXFL 529
  GI50: 0.001 µM (active)
MCF7
  GI50: 0.0108 µM (active)
MDA-MB-231
  GI50: 0.0214 µM (active)
MDA-MB-435
  GI50: 2.83 µM (inactive)
NCI-H226
  GI50: 0.216 µM (active)
NCI-H23
  GI50: < 0.0288 µM (active)
PC-3
  GI50: 4.37 µM (inactive)
SN12C
  GI50: 0.566 µM (active)
SNB-19
  GI50: 2.56 µM (inactive)
SR
  GI50: 0.0863 µM (active)
TK-10
  GI50: 2.67 µM (inactive)
UACC-62
  GI50: 0.0344 µM (active)

## Cc1cc(NS(=O)(=O)c2ccc(Nc3c4ccccc4nc4c(C(=O)N5CCN(CCO)CC5)cccc34)cc2)no1
COLO 205
  GI50: > 100 µM (inactive)
DMS-114
  GI50: > 100 µM (inactive)
EKVX
  GI50: > 100 µM (inactive)
HT-29
  GI50: > 100 µM (inactive)
IGROV-1
  GI50: > 100 µM (inactive)
KM-20L2
  GI50: > 100 µM (inactive)
LXFL 529
  GI50: > 100 µM (inactive)
NCI-H226
  GI50: > 100 µM (inactive)
NCI-H23
  GI50: > 100 µM (inactive)
SN12C
  GI50: > 100 µM (inactive)
SNB-19
  GI50: > 100 µM (inactive)
SR
  GI50: 66.5 µM (inactive)
TK-10
  GI50: > 100 µM (inactive)
UACC-62
  GI50: > 100 µM (inactive)

## CCN(CC)CCOc1ccc(/C=C(\C#N)c2ccc(OCCN(CC)CC)cc2)cc1
COLO 205
  GI50: 10.8 µM (inactive)
DMS-114
  GI50: 10.8 µM (inactive)
EKVX
  GI50: > 51.2 µM (inactive)
HT-29
  GI50: 1.43 µM (inactive)
IGROV-1
  GI50: 22.7 µM (inactive)
KM-20L2
  GI50: 1.56 µM (inactive)
LXFL 529
  GI50: 16.1 µM (inactive)
NCI-H226
  GI50: 39.4 µM (inactive)
NCI-H23
  GI50: 17.3 µM (inactive)
SN12C
  GI50: 45.1 µM (inactive)
SNB-19
  GI50: 36.4 µM (inactive)
SR
  GI50: 7.89 µM (inactive)
TK-10
  GI50: > 59.7 µM (inactive)
UACC-62
  GI50: 16.6 µM (inactive)

## CCOC(=O)C/C(N)=C(\C#N)C(=O)OCC
COLO 205
  GI50: > 100 µM (inactive)
DMS-114
  GI50: > 100 µM (inactive)
EKVX
  GI50: > 100 µM (inactive)
HT-29
  GI50: > 100 µM (inactive)
IGROV-1
  GI50: > 100 µM (inactive)
KM-20L2
  GI50: > 100 µM (inactive)
LXFL 529
  GI50: > 100 µM (inactive)
NCI-H226
  GI50: > 100 µM (inactive)
NCI-H23
  GI50: > 100 µM (inactive)
SN12C
  GI50: > 100 µM (inactive)
SNB-19
  GI50: > 100 µM (inactive)
SR
  GI50: > 100 µM (inactive)
TK-10
  GI50: > 100 µM (inactive)
UACC-62
  GI50: > 100 µM (inactive)

## Cc1cc(-c2ccccc2)nc(Nc2nc3ccccc3o2)n1
COLO 205
  GI50: > 100 µM (inactive)
DMS-114
  GI50: > 100 µM (inactive)
EKVX
  GI50: > 100 µM (inactive)
HT-29
  GI50: > 100 µM (inactive)
IGROV-1
  GI50: > 100 µM (inactive)
KM-20L2
  GI50: > 100 µM (inactive)
LXFL 529
  GI50: > 100 µM (inactive)
NCI-H226
  GI50: > 100 µM (inactive)
NCI-H23
  GI50: > 100 µM (inactive)
SN12C
  GI50: > 100 µM (inactive)
SNB-19
  GI50: > 100 µM (inactive)
SR
  GI50: > 100 µM (inactive)
TK-10
  GI50: > 100 µM (inactive)
UACC-62
  GI50: > 100 µM (inactive)

## CS(=O)(=O)c1nc(N)nc2nc[nH]c12
COLO 205
  GI50: > 100 µM (inactive)
DMS-114
  GI50: > 100 µM (inactive)
EKVX
  GI50: > 100 µM (inactive)
HT-29
  GI50: > 100 µM (inactive)
IGROV-1
  GI50: > 100 µM (inactive)
KM-20L2
  GI50: > 100 µM (inactive)
LXFL 529
  GI50: > 100 µM (inactive)
NCI-H226
  GI50: > 100 µM (inactive)
NCI-H23
  GI50: > 100 µM (inactive)
SN12C
  GI50: > 100 µM (inactive)
SNB-19
  GI50: > 100 µM (inactive)
SR
  GI50: > 100 µM (inactive)
TK-10
  GI50: > 100 µM (inactive)
UACC-62
  GI50: > 100 µM (inactive)

## CC(=O)O[C@H]1CCC2[C@@H]3CC[C@]4(C)CC(=O)C=C[C@]4(C)C3CC[C@@]21C (stereo partly specified)
BT-549
  GI50: 16.4 µM (inactive)
COLO 205
  GI50: 17.2 µM (inactive)
DMS-114
  GI50: 11.3 µM (inactive)
EKVX
  GI50: 27.5 µM (inactive)
HT-29
  GI50: 18.1 µM (inactive)
IGROV-1
  GI50: 23.8 µM (inactive)
KM-20L2
  GI50: 19.4 µM (inactive)
LXFL 529
  GI50: 14.8 µM (inactive)
MDA-MB-231
  GI50: 31.8 µM (inactive)
MDA-MB-435
  GI50: 40.6 µM (inactive)
NCI-H226
  GI50: 25.2 µM (inactive)
NCI-H23
  GI50: 21.9 µM (inactive)
PC-3
  GI50: 29.4 µM (inactive)
SN12C
  GI50: 24.2 µM (inactive)
SNB-19
  GI50: 51.3 µM (inactive)
TK-10
  GI50: 54.7 µM (inactive)
UACC-62
  GI50: 15.7 µM (inactive)
